This note sets out measurements from patent publication US20260234116A1, “CYTOTOXIC EPOXYKETONE COMPOUNDS, PRECURSORS, COMPOSITIONS, AND METHODS OF USE” (Memorial Sloan-Kettering Cancer Center, priority 2023, published 2026).

SMILES strings stand for the structures. Where two headings read alike, the source gives them in different places.

Series [1] concerns the target EpnF (Streptomyces hygroscopicus, UniProt V5RMU9). The series can be described thus: Semiquantitative epoxide capture assay (EpnF-catalyzed epoxyketone formation). The series is classed as biochemical. The settings on record: 1 μM EpnF; for EpnF-catalyzed formation of epoxyketone (epoxide capture): 250 μM β-ketoacid substrate, 1 h, positive control 11n (FIG. 1); for EpnF-catalyzed conversion to epoxyketone (epoxide capture): 240 μM β-ketoacid substrate (FIG. 2). Here is the method:
Recombinant EpnF was diluted to 1 μM in 180 μL EpnF Buffer in an 1.5 mL Eppendorf tube. The β-ketoacid 11 was added at various concentrations to a total reaction volume of 200 μL. The mixture was incubated in a heated shaker at 37° C. and 225 rpm for 1 h. The reaction mixture (30 μL×3 technical replicates) was transferred to a white, opaque 96-well plate (PerkinElmer, OptiPlate-96). Each plate also contained 30 μL×3 technical replicates of EpnF Buffer as a negative control. To each well, 15 μL of 125 mM nicotinamide in EpnF Buffer was added and mixed by pipetting. The plate was sealed with an adhesive foil cover (VWR Adhesive Foil for Microplates) and heated in an oven at 80° C. for 1 h. The plate was cooled to rt and 25 μL of 15% (v/v) acetophenone in EtOH and 25 μL of 1 M potassium hydroxide in EtOH were added to each well, then mixed by pipetting. The plate was cooled on ice for 10 min, then 125 μL formic acid was added to each well. The plate was resealed and heated in an oven at 100° C. for 5 min. The plate was cooled on ice for 5-10 min, then analyzed (λex 370 nm, λem 430 nm) on a fluorescence plate reader (Molecular Devices Spectramax M3).
We adapted a reported epoxide capture assay [Nelis, H. J. C. F.; Sinsheimer, J. E. (1981) A sensitive fluorimetric procedure for the determination of aliphatic epoxides under physiological conditions. Anal. Biochem. 115, 151-157.] to 96-well plate format to detect formation of the epoxyketone products semiquantitatively. Each β-ketoacid substrate 11 was incubated with recombinant, purified EpnF (1 h), then reacted with nicotinamide and acetophenone (1 h) to form a fluorescent 1,6-naphthyridinone 24. The fluorescent signals were normalized to that resulting from the known substrate β-ketoacid 11n as a positive control [Zabala, D.; Cartwright, J. W.; Roberts, D. M.; Law, B. J. C.; Song, L.; Samborskyy, M.; Leadlay, P. F.; Micklefield, J.; Challis, G. L. (2016) A flavin-dependent decarboxylase-dehydrogenase-monooxygenase assembles the warhead of α,β-epoxyketone proteasome inhibitors. J. Am. Chem. Soc. 138, 4342-4345.].

Series [2] can be described thus: Stability of β-ketoacid substrates (decarboxylation, 1H-NMR or SPE-MS/MS). The series is classed as physicochemical. Here is the method:
To assess rates of decarboxylation under conditions relevant to storage, biochemical assays, and cellular assays, we investigated the stability of eponemycin-based β-ketoacids 11a and 11c under a variety of conditions as shown in below Table C.
For samples stored neat, β-ketoacid 11 (lyophilized powder) was aliquoted into 1.5-2 mg samples in glass vials and placed under Ar. Samples were stored on the bench top (20-25° C.), in at 4° C. refrigerator or in a −20° C. freezer. At each time point, an entire aliquot was dissolved in CD3OD (600 μL) analyzed by ^1H-NMR for decarboxylation to the corresponding isopropyl ketone byproduct 22. The degree of decarboxylation was determined by comparing integrations of two singlet peaks at 1.40 and 1.33 ppm, arising from the α,α-dimethyl groups in the β-ketoacid 11, to two doublet peaks at 1.09 and 1.06 ppm, arising from the isopropyl methyl groups in the decarboxylation product 22. A septuplet corresponding to the methine proton of the isopropyl group was also observed at 2.91 ppm.
For samples stored in PBS, aliquots of β-ketoacid 11 were dissolved in deuterated PBS (600 μL) and incubated in a 37° C. shaking incubator. At each time point, one aliquot was removed and analyzed by ^1H-NMR as above. NMR changes observed in deuterated PBS were similar to those observed in CD3OD above.
For samples stored in RPMI, β-ketoacid 11 (lyophilized powder) was dissolved in EtOH to a working stock concentration of 20 mM. The sample was diluted in RPMI to 100 μM (1000 μL) and incubated at 37° C. At each time point, an aliquot (50 μL) was removed from the master sample, transferred to a 96-well plate, quenched with 4 vol MeOH, centrifuged at 4,000 g to precipitate debris, and immediately analyzed by SPE-MS/MS to quantitate β-ketoacid 11 remaining.

In series [3] the test system is EL4 mouse lymphoma. The series can be described thus: Cytotoxicity of epoxyketones, CellTitre-Glo, 48 h. The settings on record: EL4, 48 h. The series is classed as cell-based. The method, then:
(§1) Cytotoxicity Assays. Cancer cell lines (ATCC: U266 multiple myeloma, EL4 mouse lymphoma, Raji B-cell lymphoma) were cultured in Roswell Park Memorial Institute (RPMI) medium supplemented with 10% fetal bovine serum (FBS), 2 mM L-glutamine, 100 IU/mL penicillin, 100 μg/mL nonessential amino acids, 1 mM sodium pyruvate, and 57 μM β-mercaptoethanol. Cells (90 μL) were seeded in the inner 60 wells of an opaque-wall, clear flat-bottom 96-well plate (Corning/Falcon, 351177) at 20,000 cells per well. The outer perimeter wells were filled with 200 μL PBS to reduce evaporation in the central 60 wells. Epoxyketones 12 (20 mM in DMSO) were diluted in RPMI media to 1 mM (5% DMSO final concentration). Each epoxyketone was then diluted log-fold into 10 concentrations with 5% DMSO in RPMI. Each epoxyketone solution (10 μL) was added to the cells for a 0.5% DMSO final concentration across all wells and final epoxyketone concentrations of 100-0.005 μM. Negative control wells were treated with 10 μL of 5% DMSO in RPMI. Cells were incubated with compounds for 48 h, then cytotoxicity was measured with the CellTitre-Glo assay (Promega G9241).

Series [4] deals with Raji B-cell lymphoma. The series can be described thus: Cytotoxicity of epoxyketones, CellTitre-Glo, 48 h. The note with it: Homo sapiens. Type of series: cell-based. Here is the method: as §1
Series [5] deals with U266 multiple myeloma. The series can be described thus: Cytotoxicity of epoxyketones, CellTitre-Glo, 48 h. The series is classed as cell-based. The note with it: Homo sapiens, U-266, U266, 48 h. Here is the method:
as §1

Sequence of EpnF (V5RMU9 entry or part of it): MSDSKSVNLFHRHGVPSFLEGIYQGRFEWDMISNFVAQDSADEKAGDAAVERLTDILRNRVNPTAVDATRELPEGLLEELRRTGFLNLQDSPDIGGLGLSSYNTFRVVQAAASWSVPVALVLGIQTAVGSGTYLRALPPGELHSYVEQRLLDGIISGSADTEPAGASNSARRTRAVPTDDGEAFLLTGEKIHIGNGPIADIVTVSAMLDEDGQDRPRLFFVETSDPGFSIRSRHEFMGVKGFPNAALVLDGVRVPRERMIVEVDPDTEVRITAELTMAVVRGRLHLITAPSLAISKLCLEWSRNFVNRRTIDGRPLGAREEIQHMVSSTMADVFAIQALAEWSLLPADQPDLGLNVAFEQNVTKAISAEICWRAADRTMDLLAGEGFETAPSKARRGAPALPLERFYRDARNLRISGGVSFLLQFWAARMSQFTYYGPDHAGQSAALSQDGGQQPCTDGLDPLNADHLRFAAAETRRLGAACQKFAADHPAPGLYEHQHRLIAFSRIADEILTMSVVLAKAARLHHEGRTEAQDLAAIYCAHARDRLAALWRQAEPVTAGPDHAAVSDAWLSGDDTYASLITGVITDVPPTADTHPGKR

On to `CC(C)CCCCC(=O)N[C@@H](CO)C(=O)N[C@@H](CC(C)C)C(=O)C(C)(CO)C(=O)O` (single isomer, unassigned) [Compound 11c], for which the “EpnF-catalyzed formation of epoxyketone (epoxide capture)” value in series [1] was “no epoxide formation was detected”. Besides, the half-life (usually how long it takes for the measured level to halve) in series [2] (deuterated PBS, PBS, 37° C.) was 15 min. Besides, the “stability / rate of decarboxylation (in words)” value in series [2] (neat at low temperatures, buffer or media at 37° C.) is listed as “considerably faster”.

For the compound `C=C(C)C[C@H](NC(=O)[C@H](CO)NC(=O)CCCCC(C)C)C(=O)C(C)(CO)C(=O)O` (single isomer, unassigned) [Compound 11d], the “EpnF-catalyzed formation of epoxyketone (epoxide capture)” value in series [1] was “no epoxide formation was detected”.

With `CC(C)CCCCC(=O)N[C@@H](CO)C(=O)N[C@@H](CC(C)C)C(=O)C(C)C(=O)O` (some centres unmarked) [Compound 11e], the “EpnF-catalyzed conversion to epoxyketone (epoxide capture)” value (“EpnF-catalyzed conversion to epoxyketone” for short) in series [1] is “not tolerated”.

Consider `CC(C)CCCCC(=O)N[C@@H](CO)C(=O)N[C@@H](C)C(=O)C(C)(C)C(=O)O` [Compound 11f, (4S)-4-[(2S)-3-Hydroxy-2-(6-methylheptanamido)propanamido]-2,2-dimethyl-3-oxopentanoic acid], for which the “EpnF-catalyzed conversion to epoxyketone” value in series [1] was “could not be truncated to alanine”.

Consider `CC(C)CCCCC(=O)N[C@@H](C)C(=O)N[C@@H](CC(C)C)C(=O)C(C)(C)C(=O)O` [Compound 11j, (4S)-2,2,6-Trimethyl-4-[(2S)-2-(6-methylheptanamido)propanamido]-3-oxoheptanoic acid], for which, in series [1], the “EpnF-catalyzed conversion to epoxyketone” value is recorded as “tolerated”.

Regarding `CC(C)CCCCC(=O)N[C@@H](Cc1ccccc1)C(=O)N[C@@H](CC(C)C)C(=O)C(C)(C)C(=O)O` [Compound 11m, (4S)-2,2,6-Trimethyl-4-[(2S)-2-(6-methylheptanamido)-3-phenylpropanamido]-3-oxoheptanoic acid], in series [1], the “EpnF-catalyzed conversion to epoxyketone” value was “not accepted”.

As for `CC(C)CCCCC(=O)N[C@@H](C)C(=O)N[C@@H](CC(C)C)C(=O)[C@@]1(C)CO1` [Compound 12j, 6-Methyl-N-[(1S)-1-{[(2S)-4-methyl-1-[(2R)-2-methyloxiran-2-yl]-1-oxopentan-2-yl]carbamoyl}ethyl]heptanamide], the half-maximal inhibitory concentration (IC50) (usually the midpoint of a concentration-inhibition curve) in series [3] (read-out: IC50) was 3.2 µM; in series [3] (read-out: log IC50 (converted)), 3.02 µM; in series [4] (read-out: IC50), 1.9 µM; in series [4] (read-out: log IC50 (converted)), 1.91 µM; in series [5] (read-out: IC50), 2.2 µM; in series [5] (read-out: log IC50 (converted)) it was 2.19 µM.

As for `CC(C)CCCCC(=O)N[C@H](C(=O)N[C@@H](CC(C)C)C(=O)[C@@]1(C)CO1)[C@@H](C)O` [Compound 12l, N-[(1S)-2-Hydroxy-1-{[(2S)-4-methyl-1-[(2R)-2-methyloxiran-2-yl]-1-oxopentan-2-yl]carbamoyl}propyl]-6-methylheptanamide], the IC50 in series [3] (read-out: IC50) is 3.7 µM; in series [3] (read-out: log IC50 (converted)) it was 3.55 µM; in series [4] (read-out: IC50) it was 2.1 µM; in series [4] (read-out: log IC50 (converted)) it was 2.09 µM; in series [5] (read-out: IC50), 2.1 µM; in series [5] (read-out: log IC50 (converted)), 2.14 µM.

In the case of `CCCC(=O)N[C@@H](CO)C(=O)N[C@@H](CC(C)C)C(=O)[C@@]1(C)CO1` [Compound 12n], the IC50 in series [3] (read-out: IC50) was 5.7 µM; in series [3] (read-out: log IC50 (converted)) it was 5.37 µM; in series [4] (read-out: IC50), 5.4 µM; in series [4] (read-out: log IC50 (converted)) it was 5.37 µM; in series [5] (read-out: IC50), 4.8 µM; in series [5] (read-out: log IC50 (converted)) it was 4.79 µM.

As for `CC(C)C[C@H](NC(=O)[C@H](CO)NC(=O)c1ccccc1)C(=O)[C@@]1(C)CO1` [Compound 12o, (2S)-3-Hydroxy-N-[(2S)-4-methyl-1-[(2R)-2-methyloxiran-2-yl]-1-oxopentan-2-yl]-2-(phenylformamido)propenamide], the IC50 was 7.2 µM in series [3] (read-out: IC50); 7.24 µM in series [3] (read-out: log IC50 (converted)); 3.6 µM in series [4] (read-out: IC50); 3.47 µM in series [4] (read-out: log IC50 (converted)); 2.7 µM in series [5] (read-out: IC50); 2.69 µM in series [5] (read-out: log IC50 (converted)).
